Data taken from ChEMBL document CHEMBL4819019, “Design, synthesis, antibacterial activity and toxicity of novel quaternary ammonium compounds based on pyridoxine and fatty acids” (Eur J Med Chem, 2021).
The source made the active and inactive calls. No cut-off for these calls is given here.

Key:
[1] = Acute toxicity in C57BL/6CBA mouse assessed as enlarged spleen at 2000 mg/kg, po after 7 days; type: organism-based; conditions: in vivo, 168 h, time 7 day
Staphylococcus aureus [2] = test: Antibiofilm activity against biofilm-embedded Staphylococcus aureus assessed as reduction in log CFU at 1 to 32 times of MBC measured after 24 hrs by drop plate assay; type: functional, organism-based
[3] = Cytotoxicity against human mesenchymal stem cells assessed as cell viability measured after 72 hrs by MTT assay; type: cell-based
[4] = Genotoxicity in Salmonella typhimurium TA100 assessed as number of revertant by Ames spot test relative to solvent control; type: toxicity; conditions: salmonella enterica subsp. enterica serovar typhimurium
Pseudomonas sp. = test: Antibacterial activity against clinical isolate Pseudomonas sp. 5 measured after 24 hrs by broth microdilution method; type: functional
Staphylococcus aureus [5] = test: Antibacterial activity against clinical isolate methicillin-resistant Staphylococcus aureus 713 measured after 24 hrs by broth microdilution method; type: functional
[6] = Genotoxicity in Salmonella typhimurium TA1535/pSK1002 assessed as DNA-damage activity by measuring beta-galactosidase activity at 750 ug/ml measured by SOS-chromotest relative to solvent control; type: toxicity; conditions: salmonella enterica subsp. enterica serovar typhimurium; dose 750 µg/ml
[7] = Genotoxicity in Salmonella typhimurium TA1537 assessed as number of revertant by Ames spot test relative to solvent control; type: toxicity; conditions: salmonella enterica subsp. enterica serovar typhimurium
[8] = tested on: Staphylococcus ureilyticus; test: Antibacterial activity against clinical isolate Staphylococcus ureilyticus 1972 measured after 24 hrs by broth microdilution method; type: functional
Escherichia coli [9] = test: Antibacterial activity against clinical isolate Escherichia coli 718 measured after 24 hrs by broth microdilution method; type: functional
[10] = Genotoxicity in Salmonella typhimurium TA1535 assessed as number of revertant by Ames spot test relative to solvent control; type: toxicity; conditions: salmonella enterica subsp. enterica serovar typhimurium
[11] = Acute toxicity in C57BL/6CBA mouse assessed as pale liver at 2000 mg/kg, po after 7 days; type: organism-based; conditions: in vivo, 168 h, time 7 day
Enterococcus faecalis [12] = test: Antibacterial activity against clinical isolate Enterococcus faecalis 23 measured after 24 hrs by broth microdilution method; type: functional
[13] = Acute toxicity in C57BL/6CBA mouse assessed as pale kidneys at 2000 mg/kg, po after 7 days; type: organism-based; conditions: in vivo, 168 h, time 7 day
[14] = Cytotoxicity against human skin fibroblasts assessed as cell viability measured after 72 hrs by MTT assay; type: cell-based, Fibroblast
[15] = Acute toxicity in po dosed C57BL/6CBA mouse measured upto 7 days; type: organism-based; conditions: in vivo, time <=7 day
Bacillus subtilis = test: Antibacterial activity against Bacillus subtilis 168 measured after 24 hrs by broth microdilution method; type: functional
Cell membrane [16] = test: Induction of cell membrane damage in Escherichia coli assessed as decrease in flourescence measured for 35 mins with 5 min interval by DioC2(3) based flourescence method
Escherichia coli [17] = test: Antibacterial activity against Escherichia coli assessed as fold increase in MIC after 4 passages by serial dilution method; type: functional, organism-based; conditions: time 24.0 hrs
Staphylococcus aureus [18] = test: Antibacterial activity against clinical isolate methicillin-resistant Staphylococcus aureus 1131 measured after 24 hrs by broth microdilution method; type: functional
Staphylococcus aureus [19] = test: Antibacterial activity against clinical isolate methicillin-resistant Staphylococcus aureus 983 measured after 24 hrs by broth microdilution method; type: functional
[20] = Antibiofilm activity against biofilm-embedded Staphylococcus aureus/Escherichia coli assessed as reduction in viable cells upto 512 mg/L measured after 24 hrs by drop plate based dual species biofilm assay; type: functional, cell-based; conditions: dose mg/L <=512, time 24.0 hrs
Staphylococcus aureus [21] = test: Antibacterial activity against clinical isolate methicillin-resistant Staphylococcus aureus 1053 measured after 24 hrs by broth microdilution method; type: functional
[22] = Genotoxicity in Salmonella typhimurium TA98 assessed as number of revertant by Ames spot test relative to solvent control; type: toxicity; conditions: salmonella enterica subsp. enterica serovar typhimurium
Acinetobacter sp. = test: Antibacterial activity against clinical isolate Acinetobacter sp. 3 measured after 24 hrs by broth microdilution method; type: functional
Proteus sp. = test: Antibacterial activity against clinical isolate Proteus sp. 17 measured after 24 hrs by broth microdilution method; type: functional; conditions: Proteus sp. (in: enterobacteria)
[23] = Genotoxicity in Salmonella typhimurium TA1535/pSK1002 assessed as DNA-damage activity by measuring beta-galactosidase activity at 150 ug/ml measured by SOS-chromotest relative to solvent control; type: toxicity; conditions: salmonella enterica subsp. enterica serovar typhimurium; dose 150 µg/ml
[24] = Acute toxicity in C57BL/6CBA mouse assessed as necropsy measured at 2500 mg/kg treated as single topically measured after 14 days; type: organism-based; conditions: in vivo, topical_or_ocular, 336 h, time 14 day
Klebsiella sp. = test: Antibacterial activity against clinical isolate Klebsiella sp. 11 measured after 24 hrs by broth microdilution method; type: functional
Pseudomonas aeruginosa [25] = test: Antibacterial activity against clinical isolate Pseudomonas aeruginosa 1945 measured after 24 hrs by broth microdilution method; type: functional
Pseudomonas aeruginosa [26] = test: Antibacterial activity against Pseudomonas aeruginosa ATCC 27853 measured after 24 hrs by broth microdilution method; type: functional
Serratia marcescens = test: Antibacterial activity against clinical isolate Serratia marcescens 1966 measured after 24 hrs by broth microdilution method; type: functional
[27] = Antibiofilm activity against biofilm-embedded Staphylococcus aureus/Pseudomonas aeruginosa assessed as reduction in viable cells upto 512 mg/L measured after 24 hrs by drop plate based dual species biofilm assay; type: functional, cell-based; conditions: dose mg/L <=512, time 24.0 hrs
[28] = tested on: Staphylococcus intermedius; test: Antibacterial activity against clinical isolate methicillin-resistant Staphylococcus intermedius 1143 measured after 24 hrs by broth microdilution method; type: functional
Staphylococcus aureus [29] = test: Antibacterial activity against clinical isolate methicillin-resistant Staphylococcus aureus 1065 measured after 24 hrs by broth microdilution method; type: functional
Klebsiella pneumoniae = test: Antibacterial activity against clinical isolate Klebsiella pneumoniae 1813 measured after 24 hrs by broth microdilution method; type: functional
[30] = Cytotoxicity against human HEK293 cells assessed as cell viability measured after 72 hrs by MTT assay; type: cell-based
[31] = Lipophilicity, logP of the compound; type: physicochemical; conditions: octanol/water
Micrococcus luteus [32] = test: Antibiofilm activity against biofilm-embedded Micrococcus luteus assessed as reduction in log CFU at 1 to 32 times of MBC measured after 24 hrs by drop plate assay; type: functional, organism-based
Escherichia coli [33] = test: Antibacterial activity against Escherichia coli MG 1655 measured after 24 hrs by broth microdilution method; type: functional
Escherichia coli [34] = test: Antibiofilm activity against biofilm-embedded Escherichia coli assessed as reduction in log CFU at 1 to 32 times of MBC measured after 24 hrs by drop plate assay; type: functional, organism-based
Staphylococcus aureus [35] = test: Antibacterial activity against Staphylococcus aureus ATCC 29213 measured after 24 hrs by broth microdilution method; type: functional
Moraxella = test: Antibacterial activity against clinical isolate Moraxella 765 measured after 24 hrs by broth microdilution method; type: functional
[36] = Genotoxicity in Salmonella typhimurium TA1535/pSK1002 assessed as DNA-damage activity by measuring beta-galactosidase activity at 7.5 ug/ml measured by SOS-chromotest relative to solvent control; type: toxicity; conditions: salmonella enterica subsp. enterica serovar typhimurium; dose 7.5 µg/ml
Pseudomonas aeruginosa [37] = test: Antibiofilm activity against biofilm-embedded Pseudomonas aeruginosa assessed as reduction in log CFU at 1 to 32 times of MBC measured after 24 hrs by drop plate assay; type: functional, organism-based
[38] = Genotoxicity in Salmonella typhimurium TA1535/pSK1002 assessed as DNA-damage activity by measuring beta-galactosidase activity at 15 ug/ml measured by SOS-chromotest relative to solvent control; type: toxicity; conditions: salmonella enterica subsp. enterica serovar typhimurium; dose 15 µg/ml
Enterococcus faecalis [39] = test: Antibacterial activity against clinical isolate Enterococcus faecalis 3063 measured after 24 hrs by broth microdilution method; type: functional
Cell membrane [40] = test: Induction of cell membrane damage in Staphylococcus aureus assessed as decrease in flourescence measured for 35 mins with 5 min interval by DioC2(3) based flourescence method
[41] = tested on: Staphylococcus intermedius; test: Antibacterial activity against clinical isolate methicillin-resistant Staphylococcus intermedius 1061 measured after 24 hrs by broth microdilution method; type: functional
Micrococcus luteus [42] = test: Antibacterial activity against Micrococcus luteus clinical isolate measured after 24 hrs by broth microdilution method; type: functional
[43] = Acute toxicity in C57BL/6CBA mouse assessed as death at 2000 mg/kg, po after 7 days; type: organism-based; conditions: in vivo, 168 h, time 7 day
[44] = Acute toxicity in topically treated C57BL/6CBA mouse measured upto 14 days; conditions: in vivo, topical or ocular, time <=14 day
Staphylococcus aureus [45] = test: Antibacterial activity against Staphylococcus aureus assessed as fold increase in MIC after 8 passages by serial dilution method; type: functional, organism-based; conditions: time 24.0 hrs
[46] = Genotoxicity in Salmonella typhimurium TA1535/pSK1002 assessed as DNA-damage activity by measuring beta-galactosidase activity at 75 ug/ml measured by SOS-chromotest relative to solvent control; type: toxicity; conditions: salmonella enterica subsp. enterica serovar typhimurium; dose 75 µg/ml
[47] = Acute toxicity in topically treated C57BL/6CBA mouse assessed as death measured at 2500 mg/kg treated as single topically measured after 14 days; type: organism-based; conditions: in vivo, topical_or_ocular, 336 h, time 14 day
Staphylococcus aureus [48] = test: Antibacterial activity against clinical isolate Staphylococcus aureus 25 measured after 24 hrs by broth microdilution method; type: functional

CCCCCCCCCCCC(=O)NCC[N+](C)(C)Cc1cnc(C)c2c1COC(C)(CCC)O2.[Cl-] (stereo unspecified)
Activity [1]: Toxic | Activity (Staphylococcus aureus [2]): Active | CC50 at 72 h [3]: 1.15 µg/mL | Ratio [4]: 1.1 | MIC (Pseudomonas sp.): 32 µg/mL | MIC (Staphylococcus aureus [5]): 4 µg/mL | Ratio [6]: 0.3 | Ratio [7]: 0.03 | MIC [8]: 64 µg/mL | MIC (Escherichia coli [9]): 8 µg/mL | Ratio [10]: 0.5 | Activity [11]: Toxic | MIC (Enterococcus faecalis [12]): 2 µg/mL | Activity [13]: Toxic | CC50 at 72 h [14]: 1.79 µg/mL | LD50 at 168 h [15]: > 2000 mg/kg | MIC (Bacillus subtilis): 2 µg/mL | Activity (Cell membrane [16]): Dose-Dependent Effect | Activity (Escherichia coli [17]): Toxic | MIC (Staphylococcus aureus [18]): 4 µg/mL | MIC (Staphylococcus aureus [19]): 16 µg/mL | Activity [20]: inactive | MIC (Staphylococcus aureus [21]): 2 µg/mL | Ratio [22]: 1.9 | MIC (Acinetobacter sp.): 32 µg/mL | MIC (Proteus sp.): > 64 µg/mL | Ratio [23]: 0.5 | Activity [24]: Non-Toxic | MIC (Klebsiella sp.): 16 µg/mL | MIC (Pseudomonas aeruginosa [25]): 64 µg/mL | MIC (Pseudomonas aeruginosa [26]): 32 µg/mL | MIC (Serratia marcescens): 64 µg/mL | Activity [27]: inactive | MIC [28]: 4 µg/mL | MIC (Staphylococcus aureus [29]): 2 µg/mL | MIC (Klebsiella pneumoniae): 16 µg/mL | CC50 at 72 h [30]: 0.15 µg/mL | logP [31]: 1.35 | Activity (Micrococcus luteus [32]): Active | MIC (Escherichia coli [33]): 4 µg/mL | Activity (Escherichia coli [34]): Active | MIC (Staphylococcus aureus [35]): 1 µg/mL | MIC (Moraxella): 16 µg/mL | Ratio [36]: 1.6 | Activity (Pseudomonas aeruginosa [37]): Active | Ratio [38]: 1.6 | MIC (Enterococcus faecalis [39]): 2 µg/mL | Activity (Cell membrane [40]): Dose-Dependent Effect | MIC [41]: 4 µg/mL | MIC (Micrococcus luteus [42]): 2 µg/mL | Activity [43]: Toxic | LD50 at 336 h [44]: > 2500 mg/kg | Activity (Staphylococcus aureus [45]): Active | Ratio [46]: 0.7 | Activity [47]: Non-Toxic | MIC (Staphylococcus aureus [48]): 2 µg/mL
